The source of these data is patent US11046699B2, “Pyrazolo-pyrimidin-amino-cycloalkyl compounds and their therapeutic uses” (RAPT THERAPEUTICS, INC., priority 2018, dated 2021).

Each structure is given as a SMILES string. Structures can show the parent of a compound that is named as a salt.

Chain of GCN2 (Q9P2K8 whole entry): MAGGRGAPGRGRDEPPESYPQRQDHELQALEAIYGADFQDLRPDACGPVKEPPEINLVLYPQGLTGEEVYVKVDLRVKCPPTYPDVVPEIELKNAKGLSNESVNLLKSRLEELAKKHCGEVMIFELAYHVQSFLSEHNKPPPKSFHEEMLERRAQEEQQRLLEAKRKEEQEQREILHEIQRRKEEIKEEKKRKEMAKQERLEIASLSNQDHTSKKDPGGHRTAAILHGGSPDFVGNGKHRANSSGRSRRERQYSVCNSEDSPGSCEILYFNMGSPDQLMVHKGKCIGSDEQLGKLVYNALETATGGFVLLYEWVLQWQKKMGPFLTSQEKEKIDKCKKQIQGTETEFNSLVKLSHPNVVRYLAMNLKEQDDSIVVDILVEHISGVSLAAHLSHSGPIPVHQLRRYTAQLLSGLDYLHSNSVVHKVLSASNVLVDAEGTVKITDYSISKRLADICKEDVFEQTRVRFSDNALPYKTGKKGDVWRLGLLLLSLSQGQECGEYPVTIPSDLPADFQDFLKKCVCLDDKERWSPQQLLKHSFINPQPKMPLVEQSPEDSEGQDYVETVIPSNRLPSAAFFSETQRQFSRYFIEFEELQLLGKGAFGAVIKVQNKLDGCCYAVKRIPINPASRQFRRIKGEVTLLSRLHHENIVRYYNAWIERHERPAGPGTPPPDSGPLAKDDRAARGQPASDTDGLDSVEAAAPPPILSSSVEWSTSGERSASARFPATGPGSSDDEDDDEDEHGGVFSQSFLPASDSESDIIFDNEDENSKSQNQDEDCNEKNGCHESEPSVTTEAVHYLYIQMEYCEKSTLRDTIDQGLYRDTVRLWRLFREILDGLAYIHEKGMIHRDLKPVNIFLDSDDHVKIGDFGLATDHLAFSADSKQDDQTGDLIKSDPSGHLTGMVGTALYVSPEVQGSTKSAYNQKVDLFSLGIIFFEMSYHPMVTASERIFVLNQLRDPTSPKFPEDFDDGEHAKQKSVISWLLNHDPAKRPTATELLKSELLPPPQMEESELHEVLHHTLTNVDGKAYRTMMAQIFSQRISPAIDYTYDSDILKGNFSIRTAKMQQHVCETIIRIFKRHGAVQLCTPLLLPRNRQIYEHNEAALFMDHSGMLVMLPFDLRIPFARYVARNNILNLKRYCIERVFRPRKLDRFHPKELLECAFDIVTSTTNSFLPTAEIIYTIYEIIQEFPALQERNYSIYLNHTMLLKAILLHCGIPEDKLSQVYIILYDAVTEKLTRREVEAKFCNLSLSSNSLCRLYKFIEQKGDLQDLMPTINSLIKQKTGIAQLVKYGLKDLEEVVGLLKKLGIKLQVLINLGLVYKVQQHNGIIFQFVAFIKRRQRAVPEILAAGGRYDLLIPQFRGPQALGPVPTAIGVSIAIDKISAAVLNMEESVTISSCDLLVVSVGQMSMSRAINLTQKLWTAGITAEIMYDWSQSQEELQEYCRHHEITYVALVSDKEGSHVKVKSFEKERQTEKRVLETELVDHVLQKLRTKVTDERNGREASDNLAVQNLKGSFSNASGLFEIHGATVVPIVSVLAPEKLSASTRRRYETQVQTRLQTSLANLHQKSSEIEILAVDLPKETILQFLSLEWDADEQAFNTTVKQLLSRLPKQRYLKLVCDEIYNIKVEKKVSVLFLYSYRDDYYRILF

In one test the target is GCN2 (Homo sapiens, UniProt Q9P2K8). The test can be described thus: GCN2 enzymatic endpoint assay: phosphorylation of GFP-eIF2α measured by TR-FRET (Lanthascreen). The note with it: GCN2 biochemical IC50; 4 nM GCN2, 2 μM ATP, 80 nM GFP-eIF2α, 90 min RT; read-out: GCN2 activity. The test is classed as biochemical. In outline:
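Endpoint GCN2 reaction with low ATP (2 μM) and 80 nM GFP-eIF2α, room temperature, 90 minutes. Detection mix with EDTA and Tb-labelled antibody; 520 nm/495 nm emission ratio reported.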
(In TR-FRET formats the signal depends on donor and acceptor labels being close together.)
As to `CN1CCN(C(=O)[C@@H]2CC[C@@H](Nc3ncc4c(Br)nn(-c5ccc(N6CCOCC6)c(C#N)c5)c4n3)C2)CC1=O` [Example 9, 5-(3-bromo-6-(((1R,3R)-3-(4-methyl-3-oxopiperazine-1-carbonyl)cyclopentyl)amino)-1H-pyrazolo[3,4-d]pyrimidin-1-yl)-2-morpholinobenzonitrile], the IC50 was in the range of 200 to 500 nM.

Turning to `CNC(=O)[C@]1(C(C)C)CC[C@@H](Nc2ncc3c(Br)nn(-c4cc(F)c5ncccc5c4)c3n2)C1` [Example 37, (1R,3R)-3-((3-bromo-1-(8-fluoroquinolin-6-yl)-1H-pyrazolo[3,4-d]pyrimidin-6-yl)amino)-1-isopropyl-N-methylcyclopentane-1-carboxamide hydrochloride], the IC50 was under 25 nM.

The test is the same for the next values; noted with them: tested as described in Example 77; compound and/or hydrochloride, dihydrochloride or trifluoroacetic acid salt; read-out: IC 50 Activity.
On to `CNC(=O)c1cc(Cl)cc(-n2nc(Br)c3cnc(N[C@@H]4CC[C@@](C)(C(=O)NC)C4)nc32)c1` [3-[3-bromo-6-[[(1R,3R)-3-methyl-3-(methylcarbamoyl)cyclopentyl]amino]pyrazolo[3,4-d]pyrimidin-1-yl]-5-chloro-N-methyl-benzamide], for which the IC50 lay within 25 to 200 nM.

As for `Cc1nnc(-c2ccc(-n3nc(Br)c4cnc(NC5CCOC5)nc43)cc2)s1` (stereo not drawn) [3-bromo-1-[4-(5-methyl-1,3,4-thiadiazol-2-yl)phenyl]-N-tetrahydrofuran-3-yl-pyrazolo [3,4-d]pyrimidin-6-amine], the IC50 was 25 to 200 nM.

Regarding `CNC(=O)[C@]1(C)CC[C@@H](Nc2ncc3c(Br)nn(-c4cc(Cl)cc(CCO)c4)c3n2)C1` [(1R,3R)-3-[[3-bromo-1-[3-chloro-5-(2-hydroxyethyl)phenyl]pyrazolo [3,4-d]pyrimidin-6-yl]amino]-N,1-dimethyl-cyclopentanecarboxamide], the IC50 is under 25 nM.

On to `Cc1nnc(-c2ccc(-n3nc(Br)c4cnc(N[C@@H]5CCC(S(C)(=O)=O)C5)nc43)cc2)s1` (stereo partly drawn) [3-bromo-N-[(1R)-3-methylsulfonylcyclo-pentyl]-1-[4-(5-methyl-1,3,4-thiadiazol-2-yl)phenyl]pyrazolo[3,4-d]pyrimidin-6-amine], for which the IC50 was 25 to 200 nM.

On to `C[C@@H]1CN(C(=O)[C@@H]2CC[C@@H](Nc3ncc4c(Br)nn(-c5ccc6ncccc6c5)c4n3)C2)CCO1` [((1R,3R)-3-((3-bromo-1-(quinolin-6-yl)-1H-pyrazolo[3,4-d]pyrimidin-6-yl)amino)cyclo-pentyl)((R)-2-methylmorpholino)methanone], for which the IC50 lay in the range of 25 to 200 nM.

On to `CNC(=O)[C@]1(C)CC[C@@H](Nc2ncc3c(Br)nn(-c4cc(Cl)cc([C@H](C)N(C)C)c4)c3n2)C1`, for which the IC50 was 25 to 200 nM.

As for `CNC(=O)[C@]1(C)CC[C@@H](Nc2ncc3c(Br)nn(-c4cc(Cl)c(F)c(CO)c4)c3n2)C1` [(1R,3R)-3-[[3-bromo-1-[3-chloro-4-fluoro-5-(hydroxymethyl)phenyl]pyrazolo[3,4-d]pyrimidin-6-yl]amino]-N,1-dimethyl-cyclopentanecarboxamide], the IC50 was 25 to 200 nM.

On to `CNC(=O)[C@]1(C)CC[C@@H](Nc2ncc3c(Br)nn(-c4ccc(-c5ncco5)c(CCN)c4)c3n2)C1` [(1R,3R)-3-[[1-[3-(2-aminoethyl)-4-oxazol-2-yl-phenyl]-3-bromo-pyrazolo[3,4-d]pyrimidin-6-yl]amino]-N,1-dimethyl-cyclopentanecarboxamide], for which the IC50 lay within 25 to 200 nM.

Turning to `Cc1nnc(-c2ccc(-n3nc(Br)c4cnc(N[C@@H]5CC[C@@H](C(=O)N6CCN(C)C(=O)C6)C5)nc43)cc2)o1` [4-((1R,3R)-3-((3-bromo-1-(4-(5-methyl-1,3,4-oxadiazol-2-yl)phenyl)-1H-pyrazolo[3,4-d]pyrimidin-6-yl)amino)cyclopentane-1-carbonyl)-1-methylpiperazin-2-one], the IC50 lay within 25 to 200 nM.

For `CNC(=O)[C@]1(C)CC[C@@H](Nc2ncc3c(Br)nn(-c4ccc(-c5ncco5)c(OCCO)c4)c3n2)C1` [(1R,3R)-3-[[3-bromo-1-[3-(2-hydroxy-ethoxy)-4-oxazol-2-yl-phenyl]pyrazolo [3,4-d]pyrimidin-6-yl]amino]-N,1-dimethyl-cyclopentanecarboxamide], the IC50 is under 25 nM.

Take `O=C([C@@H]1CC[C@@H](Nc2ncc3c(Br)nn(-c4ccc5ncccc5c4)c3n2)C1)N1CCC2(CCCCO2)C1` (stereo partly drawn) [((1R,3R)-3-((3-bromo-1-(quinolin-6-yl)-1H-pyrazolo[3,4-d]pyrimidin-6-yl)amino)cyclopentyl)(6-oxa-2-azaspiro[4.5]decan-2-yl)methanone]: the IC50 is 200 to 500 nM.

Consider `CNC(=O)[C@]1(C)CC[C@@H](Nc2ncc3c(Br)nn(-c4ccc5c(c4)N(C(=O)C4CNC4)CC5)c3n2)C1` [(1R,3R)-3-[[1-[1-(azetidine-3-carbonyl)indolin-6-yl]-3-bromo-pyrazolo[3,4-d]pyrimidin-6-yl]amino]-N,1-dimethyl-cyclopentanecarboxamide], for which the IC50 fell in the range of 25 to 200 nM.

For the molecule `CNC(=O)[C@]1(CC(F)F)CC[C@@H](Nc2ncc3c(Br)nn(-c4cc(C#N)cc(OCC5CNC5)c4)c3n2)C1` [(1R,3R)-3-[[1-[3-(azetidin-3-ylmethoxy)-5-cyano-phenyl]-3-bromo-pyrazolo[3,4-d]pyrimidin-6-yl]amino]-1-(2,2-difluoroethyl)-N-methyl-cyclopentanecarboxamide], the IC50 fell in the range of 25 to 200 nM.

Consider `O=C(CO)N1CCN(C(=O)[C@@H]2CC[C@@H](Nc3ncc4c(Br)nn(-c5cc(F)c6ncccc6c5)c4n3)C2)CC1` [1-(4-((1R,3R)-3-((3-bromo-1-(8-fluoroquinolin-6-yl)-1H-pyrazolo[3,4-d]pyrimidin-6-yl)amino)cyclopentane-1-carbonyl)piperazin-1-yl)-2-hydroxyethan-1-one], for which the IC50 was 25 to 200 nM.

With `CNS(=O)(=O)C1CC[C@@H](Nc2ncc3c(Br)nn(-c4ccc(-c5nnc(C)s5)cc4)c3n2)C1` (stereo partly drawn) [(3R)-3-[[3-bromo-1-[4-(5-methyl-1,3,4-thiadiazol-2-yl)phenyl]pyrazolo[3,4-d]pyrimidin-6-yl]amino]-N-methyl-cyclopentanesulfonamide], the IC50 fell in the range of 25 to 200 nM.

In the case of `COc1ccc(-n2nc(Br)c3cnc(N[C@@H]4CC[C@@H](C(=O)N5CCN(C)C(=O)C5)C4)nc32)cc1C#N` [5-(3-bromo-6-(((1R,3R)-3-(4-methyl-3-oxo-piperazine-1-carbonyl)cyclopentyl)amino)-1H-pyrazolo[3,4-d]pyrimidin-1-yl)-2-methoxybenzonitrile], the IC50 is 200 to 500 nM.

Consider `CNC(=O)[C@]1(C)CC[C@@H](Nc2ncc3c(Br)nn(-c4ccc(-c5nncs5)cc4)c3n2)C1`, for which the IC50 was in the range of 25 to 200 nM.

Regarding `CNC(=O)[C@]1(C)CC[C@@H](Nc2ncc3c(Br)nn(-c4cccc(Oc5ccncc5)c4)c3n2)C1` [(1R,3R)-3-[[3-bromo-1-[3-(4-pyridyloxy)phenyl]pyrazolo[3,4-d]pyrimidin-6-yl]amino]-N,1-dimethyl-cyclopentane-carboxamide], the IC50 fell in the range of 25 to 200 nM.

As to `CNC(=O)[C@]1(C)CC[C@@H](Nc2ncc3c(Br)nn(-c4ccc(-c5nnc(C(C)(C)N)o5)c(F)c4)c3n2)C1` [(1R,3R)-3-[[1-[4-[5-(1-amino-1-methyl-ethyl)-1,3,4-oxadiazol-2-yl]-3-fluoro-phenyl]-3-bromo-pyrazolo[3,4-d]pyrimidin-6-yl]amino]-N,1-dimethyl-cyclopentanecarboxamide], the IC50 was in the range of 25 to 200 nM.

In the case of `CNC(=O)[C@]1(C)CC[C@@H](Nc2ncc3c(Br)nn(-c4ccc5cncnc5c4)c3n2)C1`, the IC50 lay within 25 to 200 nM.

For `CNC(=O)[C@]1(C)CC[C@@H](Nc2ncc3c(Br)nn(-c4ccc(-c5ncco5)c(CC(=O)N(C)C)c4)c3n2)C1` [(1R,3R)-3-[[3-bromo-1-[3-[2-(dimethylamino)-2-oxo-ethyl]-4-oxazol-2-yl-phenyl]pyrazolo [3,4-d]pyrimidin-6-yl]amino]-N,1-dimethyl-cyclopentanecarboxamide], the IC50 was in the range of 25 to 200 nM.

On to `Cc1nnc(-c2ccc(-n3nc(Br)c4cnc(N[C@@H]5CC[C@@](C)(N(C)C)C5)nc43)cc2)s1`, for which the IC50 fell in the range of 25 to 200 nM.

Regarding `CNC(=O)[C@]1(CC(F)F)CC[C@@H](Nc2ncc3c(Br)nn(-c4ccc(-c5cccnc5)c(C#N)c4)c3n2)C1` [(1R,3R)-3-[[3-bromo-1-[3-cyano-4-(3-pyridyl)phenyl]pyrazolo[3,4-d]pyrimidin-6-yl]amino]-1-(2,2-difluoroethyl)-N-methyl-cyclopentanecarboxamide], the IC50 fell in the range of 25 to 200 nM.

As for `O=C1CN(C(=O)[C@@H]2CC[C@@H](Nc3ncc4c(Br)nn(-c5cc(F)c6ncccc6c5)c4n3)C2)CC(=O)N1` [4-((1R,3R)-3-((3-bromo-1-(8-fluoroquinolin-6-yl)-1H-pyrazolo[3,4-d]pyrimidin-6-yl)amino)cyclopentane-1-carbonyl)piperazine-2,6-dione], the IC50 is under 25 nM.

For the molecule `CNC(=O)[C@]1(C)CC[C@@H](Nc2ncc3c(Br)nn(-c4cc(C#N)cc(C5CNC5)c4)c3n2)C1` [(1R,3R)-3-[[1-[3-(azetidin-3-yl)-5-cyano-phenyl]-3-bromo-pyrazolo[3,4-d]pyrimidin-6-yl]amino]-N,1-dimethyl-cyclopentane-carboxamide], the IC50 fell in the range of 25 to 200 nM.

As to `CNC(=O)[C@]1(C)CC[C@@H](Nc2ncc3c(Br)nn(-c4ccc5ncncc5c4)c3n2)C1` [(1R,3R)-3-[(3-bromo-1-quinazolin-6-yl-pyrazolo[3,4-d]pyrimidin-6-yl)amino]-N,1-dimethyl-cyclopentane-carboxamide], the IC50 is 25 to 200 nM.

For the molecule `CP(C)(=O)[C@@H]1CC[C@@H](Nc2ncc3c(Br)nn(-c4cc(C5CCNC5)c5ncccc5c4)c3n2)C1` (stereo partly drawn) [3-bromo-N-[(1R,3R)-3-dimethylphosphoryl-cyclopentyl]-1-(8-pyrrolidin-3-yl-6-quinolyl) pyrazolo[3,4-d]pyrimidin-6-amine], the IC50 fell in the range of 25 to 200 nM.

With `CN1CCN(C(=O)[C@@H]2CC[C@@H](Nc3ncc4c(Br)nn(-c5cc(C(F)F)c6ncccc6c5)c4n3)C2)CC1=O` [4-((1R,3R)-3-((3-bromo-1-(8-(difluoromethyl)quinolin-6-yl)-1H-pyrazolo[3,4-d]pyrimidin-6-yl)amino)cyclopentane-1-carbonyl)-1-methyl-piperazin-2-one], the IC50 was 25 to 200 nM.
